# Data as given in patent US20060211606A1, “Peptides” (priority 2005, published 2006).
# System: Human Skeletal Muscle Myoblasts (HSMM)
# Experiment: HSMM proliferation, BrdU incorporation
# Assay type: cell-based
# Settings: 48 hours; A5 significant (P<0.1) at doses of 10 ng/ml and below; IGF-I alone 0.1, 10 and 100 ng/ml
# Procedure: (A) Peptide A5: HSMM cells at 500 cells/well. Cultivation was carried out for 24 hours in 10% FCS, followed by two washes in serum free medium, stimulation for 48 hours and then treatment with BrdU for 5 hours. Concentrations of 0.1, 1, 10, 100 and 500 ng/ml of peptide A5 were tested, along with 0.1, 1, 10 and 100 ng/ml IGF-I. BrdU incorporation was measured to assess the level of cell proliferation achieved. Controls containing medium only, no cells (BLK), background staining (BG) and 10% FBS were also provided. Values on the Y-axis are for fluorescence (absorbence at 370 nm; mean plus standard error across 4 wells). The first five columns relate to peptide A5 at concentrations of 0.1, 1, 10, 100 and 500 ng/ml. The next column relates to the control containing medium only. The next three relate to IGF-I (See Example 1.5) alone at concentrations of 100, 10 and 0.1 ng/ml. The next three relate to controls containing 10% FBS, background staining and no cells respectively. * means P<0.05 compared to medium only control.
# (§1) (B) Peptide AS: HSMM cells at 500 cells/well. […] Concentrations of 0.1, 1, 10, 100 and 500 ng/ml of peptide AS in combination with 2 ng/ml IGF-I were tested, along with 0.1, 1, 10 and 100 ng/ml IGF-I. BrdU incorporation was measured to assess the level of cell proliferation achieved. […] Values on the Y-axis are for fluorescence (absorbence at 370 nm; mean plus standard error across 4 wells). […]
# as §1, with “(A)” for “(B)”, “AS” for “AS in combination with 2 ng/ml IGF-I”
# (B) Peptide A5: HSMM cells at 500 cells/well. […] Concentrations of 0.1, 1, 10, 100 and 500 ng/ml of peptide AS in combination with 2 ng/ml IGF-I were tested, along with 0.1, 1, 10 and 100 ng/ml IGF-I. BrdU incorporation was measured to assess the level of cell proliferation achieved. […]
substance,measurement,value
"IGF-I: IGF-I receptor binding domain encoded by Exons 3 and 4, common to all splice variants, approximately 70 amino acids [reference compound]","proliferation of HSMM (BrdU incorporation), used in isolation",no significant effect
